Like-named read-outs stand apart in the source and are kept apart here.
Assays:
[1] = tested on: FGFR2 fusion/rearrangement-positive cholangiocarcinoma (CCA); set-up: method as in PMID 29182496; settings: 108 previously-treated patients; cited from earlier work
UC = tested on: UC; set-up: method as in PMID 31340094; settings: 99 patients with UC; cited from earlier work
serum phosphate [2] = assay: Pharmacodynamics: serum phosphate level as PD marker for FGFR inhibition; assay type: in vivo, human (Chinese patients)
Procedure: Serum phosphate level was defined as the PD marker in the study for assessing FGFR inhibition. […] Serum phosphate levels were measured using phosphomolybdate UV method (measuring range: 0.31‑20.0 mg/dL) by the central laboratory (Q2 Solutions [Beijing] Co., Ltd.).
Serum samples were analyzed for the concentration of serum phosphate using phosphomolybdate UV method by the central laboratory (Q2 Solutions (Beijing) Co., Ltd.). The concentration of phosphomolybdate formed is directly proportional to the inorganic phosphate concentration and is measured photometrically. Phosphorus quantification was determined in human plasma on Roche/Hitachi cobas c systems. Measuring range was 0.10‑6.46 mmol/L (0.31‑20.0 mg/dL). Reagents: Phosphate (Inorganic) ver.2 (250 tests) Catalouge:03183793 122.

serum phosphate [3] = settings: Western population; cited from earlier work
[4] = any grade, Japanese patients; cited from earlier work
[5] = Plasma pharmacokinetics of pemigatinib (LC–MS/MS, non-compartmental), phase I; assay type: in vivo, human (Chinese patients); settings: for Tmax: read-out: tmax, median (min, max)
[6] = tested on: FGF/FGFR1-3 altered, advanced solid tumors; assay: Antitumor activity per RECIST v1.1 by investigator, phase I; assay type: in vivo, human (Chinese patients); settings: 12 patients
Procedure: Tumor response was assessed by investigator according to Response Evaluation Criteria in Solid Tumors (RECIST) v1.1 every 9 weeks after first dosing.
(§1) Tumor was assessed per RECIST v1.1 by investigator at baseline, and every 9 weeks after first dosing. […] Adverse events (AEs) were graded per CTCAE v5.0. […] Sponsor-defined clinically notable TEAEs included hyperphosphatemia, hypophosphatemia, nail toxicities, and serous retinal detachment.
(§2) All statistical analyses were conducted using SAS version 9.4 (or higher).
The Clopper-Pearson method was used to calculate the 95% confidence interval (CI) of ORR and DCR. The Kaplan–Meier method and the Brookmeyer and Crowley method were used to estimate PFS.

advanced malignancies = settings: Japanese population, cited from earlier work
[7] = Western population, steady state, cited from earlier work
[8] = cited from earlier work
[9] = tested on: FGF/FGFR alterations and advanced malignancies; settings: Western patients, cited from earlier work
[10] = Safety: treatment-emergent adverse events (CTCAE v5.0), phase I; assay type: in vivo
Procedure: as §1, §2

[11] = 13.5 mg oral QD, C1D14 (steady state), N=12

CCN1CCN(c2ccc(Nc3cc(N(C)C(=O)Nc4c(Cl)c(OC)cc(OC)c4Cl)ncn3)cc2)CC1 [Infigratinib]
ORR [1]: 23.1%

COc1cc(OC)cc(N(CCNC(C)C)c2ccc3ncc(-c4cnn(C)c4)nc3c2)c1 [erdafitinib]
Overall objective response rate (ORR) (UC): 40%

CCN1C(=O)N(c2c(F)c(OC)cc(OC)c2F)Cc2cnc3[nH]c(CN4CCOCC4)cc3c21 [pemigatinib]
Serum phosphate level increase, mean (serum phosphate [2]; days 8 and 15 of cycle 1, 13.5 mg QD, 11 patients, CV% 31.3%): 2.25 mg/dL | Serum phosphate concentration change from baseline, geomean (CV%) (serum phosphate [2]; days 8 and 15 of cycle 1, Chinese patients): 2.15 (32.9%) mg/dL | Serum phosphate level after 1 week off (serum phosphate [2]; post 1 week off/intermission): decreased to baseline | Serum phosphorus during subsequent treatment (serum phosphate [2]; subsequent treatment after cycle 1): remained below or near the baseline levels | Serum phosphate concentration change from baseline, geomean (CV%) (serum phosphate [3]): 2.6 (40.4%) mg/dL | Incidence of hyperphosphataemia [4]: 76% | CLss/F, geometric mean [5, 11]: 11.8 L/h | CLss/F, mean ± STD [5, 11]: 13.3 ± 7.2 L/h | Cmin,ss, geometric mean [5, 11]: 49.8 nM | tmax, median (min, max) [5, 11]: 1.99 (0.5, 23.2) h | AUCss,0-24, geomean ([5]; Chinese patients, steady state, 13.5 mg QD): 2.6369 µM·h | Cmax ([5]; Chinese patients, steady state, 13.5 mg QD, read-out: Cmax,ss, geomean): 215 nM | AUC(0-t) ([5]; human, plasma, po, 13.5 mg, 13.5 mg oral QD, C1D1, N=12, read-out: AUC0-24, geometric mean (converted)): 2.13 µM·h | AUC(0-t) ([5]; human, plasma, po, 13.5 mg, 13.5 mg oral QD, C1D1, N=12, read-out: AUC0-24, mean ± STD): 2.24 ± 0.861 µM·h | Cmax ([5]; human, plasma, po, 13.5 mg, 13.5 mg oral QD, C1D1, N=12, read-out: Cmax, geometric mean (converted)): 154 nM | Cmax ([5]; human, plasma, po, 13.5 mg, 13.5 mg oral QD, C1D1, N=12, read-out: Cmax, mean ± STD): 190 ± 108 nM | Tmax ([5]; human, plasma, po, 13.5 mg, 13.5 mg oral QD, C1D1, N=12): ~1.52 h | AUC ([5]; human, plasma, po, 13.5 mg, 13.5 mg oral QD, C1D14 (steady state), N=12, read-out: AUCss,0-24, geometric mean (converted)): 2.64 µM·h | AUC ([5]; human, plasma, po, 13.5 mg, 13.5 mg oral QD, C1D14 (steady state), N=12, read-out: AUCss,0-24, mean ± STD): 2.94 ± 1.44 µM·h | Cmax ([5]; human, plasma, po, 13.5 mg, 13.5 mg oral QD, C1D14 (steady state), N=12, read-out: Cmax,ss, geometric mean (converted)): 215 nM | Cmax ([5]; human, plasma, po, 13.5 mg, 13.5 mg oral QD, C1D14 (steady state), N=12, read-out: Cmax,ss, mean ± STD): 246 ± 115 nM | Vd/F ([5]; human, plasma, po, 13.5 mg, 13.5 mg oral QD, C1D14 (steady state), N=12, read-out: Vz/F, geometric mean (converted)): 170 L | Vd/F ([5]; human, plasma, po, 13.5 mg, 13.5 mg oral QD, C1D14 (steady state), N=12, read-out: Vz/F, mean ± STD): 179 ± 60.4 L | Tmax ([5]; human, plasma, po, 13.5 mg, 13.5 mg oral QD, C1D14 (steady state), N=12): ~1.99 h | half-life ([5]; human, plasma, po, 13.5 mg, 13.5 mg oral QD, C1D14 (steady state), N=12, read-out: t½ (elimination half-life), geometric mean (converted)): 11.3 h | half-life ([5]; human, plasma, po, 13.5 mg, 13.5 mg oral QD, C1D14 (steady state), N=12, read-out: t½, mean ± STD (converted)): 11.8 ± 4 h | Objective response rate (ORR) ([6]; 13.5 mg QD 2-weeks-on/1-week-off, confirmed): 16.7% | Best overall confirmed response: Partial response [6]: 2 (16.7%) n (%) | Objective response rate ([6]; 95% CI […] - 48.4%): 2 (16.7%) n (%) | Objective response rate (advanced malignancies; Fight-102, 1/25): 4.0% | Disease control rate (advanced malignancies; Fight-102): 40.0% | AUCss,0-24, geomean [7]: 2.62 µM·h | Cmax ([7]; read-out: Cmax,ss, geomean): 236 nM | Incidence of hyperphosphataemia ([8]; any grade, Western patients): 75% | Incidence of hyperphosphataemia ([8]; grade ≥ 3, Western patients): 2.3% | ORR for patients with FGFR mutations ([9]; Fight-101, 3/13): 23.1% | ORR for patients with FGFR fusions/rearrangements ([9]; Fight-101, 5/20): 25.0% | Disease control rate ([9]; Fight-101): 40.6% | Objective response rate ([9]; Fight-101): 9.4% | TEAEs leading to treatment interruption/discontinuation or death ([10]; 12 patients): No TEAEs led to treatment interruption/discontinuation or death | Anaemia ([10]; human, in vivo): 6 (50.0) n (%) | Blood alkaline phosphatase increased ([10]; human, in vivo): 0 n (%) | Blood bilirubin increased ([10]; human, in vivo): 0 n (%) | Blood lactate dehydrogenase increased ([10]; human, in vivo): 0 n (%) | Decreased appetite ([10]; human, in vivo): 6 (50.0) n (%) | Diarrhoea ([10]; human, in vivo): 0 n (%) | Gamma-glutamyltransferase increased ([10]; human, in vivo): 1 (8.3) n (%) | Hypoalbuminaemia ([10]; human, in vivo): 6 (50.0) n (%) | Hypochloraemia ([10]; human, in vivo): 0 n (%) | Incidence of anaemia ([10]; human, in vivo): 50.0% | Incidence of arthralgia ([10]; human, in vivo): 8.3% | Incidence of decreased appetite ([10]; human, in vivo): 50.0% | Incidence of gamma-glutamyltransferase increased ([10]; human, in vivo): 8.3% | Incidence of hypercalcaemia ([10]; human, in vivo): 8.3% | Incidence of hypoalbuminaemia ([10]; human, in vivo): 50.0% | Incidence of hypophosphatemia (clinically-notable TEAE) ([10]; human, in vivo): 25.0% | Incidence of lipase increased ([10]; human, in vivo): 8.3% | Incidence of nail discolouration (clinically-notable TEAE) ([10]; human, in vivo): 8.3% | Incidence of nail disorder (clinically-notable TEAE) ([10]; human, in vivo): 16.7% | Incidence of nail toxicity (clinically-notable TEAE) ([10]; human, in vivo): 16.7% | Incidence of proteinuria ([10]; human, in vivo): 8.3% | Low density lipoprotein increased ([10]; human, in vivo): 0 n (%) | Patients with dose reduction due to proteinuria ([10]; human, in vivo): 8.3% | Patients with grade ≥ 3 TEAEs ([10]; human, in vivo): 25.0% | Patients with grade ≥ 3 treatment-related AEs ([10]; human, in vivo): 16.7% | Proteinuria ([10]; human, in vivo): 1 (8.3) n (%) | Weight decreased ([10]; human, in vivo): 0 n (%) | Ocular toxicity (vision blurred of grade 1) ([10]; in vivo): only one patient experienced ocular toxicity | Serious TEAEs ([10]; in vivo): No serious TEAEs occurred

From article PMC10663244 (Investigational New Drugs, 2023)
